Converted amounts (≈) assume the structure as drawn. Like-named read-outs stand apart in the source and are kept apart here.
Tests used:
Format in all cases: cell-based
[1] = test system: Streptococcus pneumoniae 1175; settings: microtiter broth dilution
Method in brief: (§1)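 Panel strains, including macrolide-resistant isolates and their susceptible parents where available, are exposed to serial compound dilutions in microtiter trays. Growth inhibition is scored as MIC under NCCLS M100-S14 standards.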

[2] = test system: Streptococcus pneumoniae 1095; settings: microtiter broth dilution
Method in brief: as §1

[3] = test system: Streptococcus pneumoniae 1016; assay: MIC, microtiter broth dilution (NCCLS M100-S14), S. pneumoniae 1016 (susceptible)
Method in brief: as §1

[4] = test system: Streptococcus pyogenes 1079; assay: MIC, microtiter broth dilution (NCCLS M100-S14), S. pyogenes 1079 (ermB)
Method in brief: as §1

[5] = test system: Haemophilus influenzae 1218; assay: MIC, microtiter broth dilution (NCCLS M100-S14), H. influenzae 1218 (susceptible)
Method in brief: as §1

[6] = S. pneumoniae 1016 (susceptible)
[7] = H. influenzae 1218 (susceptible)

Row | Compound | MIC S. pneumo. 1175 ([1]; Streptococcus pneumoniae 1175) | MIC S. pneumo. 1095 ([2]; Streptococcus pneumoniae 1095) | MIC S. pneumo. 1016 ([3]; Streptococcus pneumoniae 1016) | MIC S. pyogenes 1079 ([4]; Streptococcus pyogenes 1079) | MIC H. influenzae 1218 ([5]; Haemophilus influenzae 1218) | MIC S. pneumo. 1175 ([1]; S. pneumoniae 1175 (mefA)) | MIC S. pneumo. 1095 ([2]; S. pneumoniae 1095 (ermB)) | MIC S. pneumo. 1016 [3, 6] | MIC S. pyogenes 1079 ([4]; S. pyogenes 1079 (ermB)) | MIC H. influenzae 1218 [5, 7]
1 | CC[C@H]1OC(=O)[C@H](C)C(=O)[C@H](C)[C@@H](O[C@@H]2O[C@H](C)C[C@H](N(C)C)[C@H]2O)[C@](C)(OC)C[C@@H](C)C(=O)[C@H](C)[C@H]2N(C3CN(Cc4c(C#N)cnc5ccccc45)C3)C(=O)O[C@]12C [Example 1.73, 3-descladinosyl-11,12-dideoxy-6-O-methyl-3-oxo-12,11-(oxycarbonyl-(1-(quinoline-3-carbonitrile-4-methyl)-azetidin-3-yl)-imino)erythromycin A] | <0.063 µg/mL | <0.063 µg/mL | <0.063 µg/mL | 0.125 µg/mL (≈ 0.15 µM) | 2 µg/mL (≈ 2.4 µM) |  |  |  |  | 
2 | CCC1OC(=O)C(C)C(=O)C(C)C(OC2OC(C)CC(N(C)C)C2O)C(C)(OC)CC(C)C(=O)C(C)C2N(CC3CN(Cc4ccc5ncccc5c4)C3)C(=O)OC12C (stereo not drawn) [Example 4.14, 3-descladinosyl-11,12-dideoxy-6-O-methyl-3-oxo-12,11-(oxycarbonyl-(1-((quinolin-6-yl)-methyl)-(azetidin-3-yl)-methyl)-imino)-erythromycin A] | <0.06 µg/mL | <0.06 µg/mL | <0.06 µg/mL | 8 µg/mL (≈ 9.72 µM) | 0.5 µg/mL (≈ 0.608 µM) |  |  |  |  | 
3 | CCC1OC(=O)C(C)C(=O)C(C)C(OC2OC(C)CC(N(C)C)C2O)C(C)(OC)CC(C)C(=O)C(C)C2N(C3CCN(S(=O)(=O)c4cccc5cnccc45)C3)C(=O)OC12C (stereo not drawn) [Example 9.08, isoquinoline-5-sulfonyl] |  |  |  |  |  | 0.12 µg/mL (≈ 0.137 µM) | 4 µg/mL (≈ 4.58 µM) | <0.06 µg/mL | 16 µg/mL (≈ 18.3 µM) | 0.25 µg/mL (≈ 0.286 µM)
4 | CCC1OC(=O)C(C)C(=O)C(C)C(OC2OC(C)CC(N(C)C)C2O)C(C)(OC)CC(C)C(=O)C(C)C2N(C3CN(Cc4cccnc4)C3)C(=O)OC12C (stereo not drawn) [Example 1.03, (pyridin-3-yl)methyl] | 2 µg/mL (≈ 2.64 µM) | <0.06 µg/mL | <0.06 µg/mL | >64.00 µg/mL | 0.5 µg/mL (≈ 0.659 µM) |  |  |  |  | 
5 | CCC1OC(=O)C(C)C(=O)C(C)C(OC2OC(C)CC(N(C)C)C2O)C(C)(OC)CC(C)C(=O)C(C)C2N(C3CN(Cc4c(OC)cnc5cccnc45)C3)C(=O)OC12C (stereo not drawn) [Example 1.101, 3-descladinosyl-11,12-dideoxy-6-O-methyl-3-oxo-12,11-(oxycarbonyl-(1-(3-methoxy-1,5-naphthyridine-4-methyl)-azetidin-3-yl)-imino)-erythromycin A] | <0.063 µg/mL | 0.125 µg/mL (≈ 0.149 µM) | <0.063 µg/mL | 0.25 µg/mL (≈ 0.298 µM) | 2 µg/mL (≈ 2.38 µM) |  |  |  |  | 
6 | CCC1OC(=O)C(C)(F)C(=O)C(C)C(OC2OC(C)CC(N(C)C)C2O)C(C)(OC)CC(C)C(=O)C(C)C2N(CC3CCCN3C(=O)c3cc4ccccn4n3)C(=O)OC12C (stereo not drawn) [10.28] |  |  |  |  |  | 0.12 µg/mL (≈ 0.14 µM) | <0.06 µg/mL | <0.06 µg/mL | 16 µg/mL (≈ 18.6 µM) | 1 µg/mL (≈ 1.17 µM)
7 | CCC1OC(=O)C(C)C(=O)C(C)C(OC2OC(C)CC(N(C)C)C2O)C(C)(OC)CC(C)C(=O)C(C)C2N(C3CCN(Cc4ccnc5ncccc45)C3)C(=O)OC12C [Example 9.05, 3-descladinosyl-11,12-dideoxy-6-O-methyl-3-oxo-12,11-(oxycarbonyl-(1-((1,8-naphthyridin-4-yl)-methyl)-(R)-pyrrolidin-3-yl)-imino)erythromycin A] |  |  |  |  |  | 0.5 µg/mL (≈ 0.607 µM) | 0.5 µg/mL (≈ 0.607 µM) | <0.06 µg/mL | 8 µg/mL (≈ 9.71 µM) | 8 µg/mL (≈ 9.71 µM)
8 | CCC1OC(=O)C(C)C(=O)C(C)C(OC2OC(C)CC(N(C)C)C2O)C(C)(OC)CC(C)C(=O)C(C)C2N(CC3CN(Cc4n[nH]c5cc(Cl)ccc45)C3)C(=O)OC12C (stereo not drawn) [4.23] | 0.12 µg/mL (≈ 0.142 µM) | 4 µg/mL (≈ 4.73 µM) | <0.06 µg/mL | 16 µg/mL (≈ 18.9 µM) | <0.06 µg/mL |  |  |  |  | 
9 | CC[C@H]1OC(=O)[C@H](C)C(=O)[C@H](C)[C@@H](O[C@@H]2O[C@H](C)C[C@H](N(C)C)[C@H]2O)[C@](C)(OC)C[C@@H](C)C(=O)[C@H](C)[C@H]2N(CC3(O)CN(Cc4ccn(-c5cccnc5)n4)C3)C(=O)O[C@]12C [7.13] |  |  |  |  |  | 1 µg/mL (≈ 1.17 µM) | 1 µg/mL (≈ 1.17 µM) | <0.06 µg/mL | >64.00 µg/mL | 2 µg/mL (≈ 2.34 µM)
10 | CCC1OC(=O)C(C)C(=O)C(C)C(OC2OC(C)CC(N(C)C)C2O)C(C)(OC)CC(C)C(=O)C(C)C2N(CC3CCN(Cc4c[nH]c5ncccc45)C3)C(=O)OC12C (stereo not drawn) [13.01] |  |  |  |  |  | 1 µg/mL (≈ 1.21 µM) | 0.25 µg/mL (≈ 0.303 µM) | <0.06 µg/mL | >64.00 µg/mL | 1 µg/mL (≈ 1.21 µM)
11 | CCC1OC(=O)C(C)C(=O)C(C)C(OC2OC(C)CC(N(C)C)C2O)C(C)(OC)CC(C)C(=O)C(C)C2N(CC3CCN(C(=O)c4ccc5ncccc5c4)C3)C(=O)OC12C (stereo not drawn) [13.12] |  |  |  |  |  | 0.5 µg/mL (≈ 0.588 µM) | >64.00 µg/mL | <0.06 µg/mL | >64.00 µg/mL | 4 µg/mL (≈ 4.7 µM)
12 | CCC1OC(=O)C(C)C(=O)C(C)C(OC2OC(C)CC(N(C)C)C2O)C(C)(OC)CC(C)C(=O)C(C)C2N(CC3CN(Cc4n[nH]c5ccccc45)C3)C(=O)OC12C (stereo not drawn) [4.22] | 0.25 µg/mL (≈ 0.308 µM) | 2 µg/mL (≈ 2.46 µM) | <0.06 µg/mL | 32 µg/mL (≈ 39.4 µM) | 0.12 µg/mL (≈ 0.148 µM) |  |  |  |  | 
13 | CCC1OC(=O)C(C)C(=O)C(C)C(OC2OC(C)CC(N(C)C)C2O)C(C)(OC)CC(C)C(=O)C(C)C2N(C3CN(S(=O)(=O)c4ccc(-n5ccnc5)c(C#N)c4)C3)C(=O)OC12C (stereo not drawn) [Example 3.64] | <0.06 µg/mL | <0.06 µg/mL | <0.06 µg/mL | 32 µg/mL (≈ 35.6 µM) | 0.5 µg/mL (≈ 0.556 µM) |  |  |  |  | 
14 | CCC1OC(=O)C(C)C(=O)C(C)C(OC2OC(C)CC(N(C)C)C2O)C(C)(OC)CC(C)C(=O)C(C)C2N(C3CN(Cc4c(C)cnc5ncccc45)C3)C(=O)OC12C (stereo not drawn) [Example 1.99, 3-descladinosyl-11,12-dideoxy-6-O-methyl-3-oxo-12,11-(oxycarbonyl-(1-(3-methyl-1,8-naphthyridine-4-methyl)-azetidin-3-yl)-imino)-erythromycin A] | <0.063 µg/mL | <0.063 µg/mL | <0.063 µg/mL | 0.5 µg/mL (≈ 0.607 µM) | 1 µg/mL (≈ 1.21 µM) |  |  |  |  | 
15 | CCC1OC(=O)C(C)C(=O)C(C)C(OC2OC(C)CC(N(C)C)C2O)C(C)(OC)CC(C)C(=O)C(C)C2N(C3CN(Cc4cn[nH]c4)C3)C(=O)OC12C (stereo not drawn) [Example 1.19, (1H-pyrazol-4-yl)methyl] | 4 µg/mL (≈ 5.35 µM) | 0.12 µg/mL (≈ 0.16 µM) | <0.06 µg/mL | >64.00 µg/mL | 0.5 µg/mL (≈ 0.669 µM) |  |  |  |  | 
16 | CCC1OC(=O)C(C)C(=O)C(C)C(OC2OC(C)CC(N(C)C)C2O)C(C)(OC)CC(C)C(=O)C(C)C2N(C3CN(S(=O)(=O)c4cccc(-c5ncon5)c4)C3)C(=O)OC12C (stereo not drawn) [Example 3.41, 3-descladinosyl-11,12-dideoxy-6-O-methyl-3-oxo-12,11-(oxycarbonyl-(1-(3-(1,2,4-oxadiazol-3-yl)benzenesulfonyl)-azetidin-3-yl)-imino)-erythromycin A] | <0.06 µg/mL | <0.06 µg/mL | <0.06 µg/mL | 8 µg/mL (≈ 9.13 µM) | 0.25 µg/mL (≈ 0.285 µM) |  |  |  |  | 
17 | CCC1OC(=O)C(C)C(=O)C(C)C(OC2OC(C)CC(N(C)C)C2O)C(C)(OC)CC(C)C(=O)C(C)C2N(CC3CCCN3C(=O)c3cc4cccnc4nc3C)C(=O)OC12C (stereo not drawn) [10.39] |  |  |  |  |  | 0.5 µg/mL (≈ 0.577 µM) | <0.06 µg/mL | <0.06 µg/mL | >64.00 µg/mL | 2 µg/mL (≈ 2.31 µM)
18 | CCC1OC(=O)C(C)C(=O)C(C)C(OC2OC(C)CC(N(C)C)C2O)C(C)(OC)CC(C)C(=O)C(C)C2N(C3CN(Cc4ccc(-n5cccn5)nc4)C3)C(=O)OC12C (stereo not drawn) [Example 1.45] | 0.5 µg/mL (≈ 0.606 µM) | <0.06 µg/mL | <0.06 µg/mL | 16 µg/mL (≈ 19.4 µM) | 4 µg/mL (≈ 4.85 µM) |  |  |  |  | 
